# Test results from patent publication US9981916B2 (Genentech, Inc., priority 2013, dated 2018).
# pIC50: −log10 of the molar value.
# Target: T1, RORc ligand binding domain (Homo sapiens, UniProt P51449)
# T1 construct: host or cells: E. coli
# T1 sequence (P51449 269-508 limits assumed): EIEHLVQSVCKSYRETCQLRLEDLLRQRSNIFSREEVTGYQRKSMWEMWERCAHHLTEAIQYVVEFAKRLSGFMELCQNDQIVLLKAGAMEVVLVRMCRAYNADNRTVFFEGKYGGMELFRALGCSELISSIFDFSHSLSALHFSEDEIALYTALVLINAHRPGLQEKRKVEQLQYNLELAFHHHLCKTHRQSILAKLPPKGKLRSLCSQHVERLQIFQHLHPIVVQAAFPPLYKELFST
# Experiment: In vitro RORc ligand binding assay (25-[3H]hydroxycholesterol displacement, filter binding)
# Details: 6 nM 25-[3H]hydroxycholesterol, 0.6 ug/mL RORc receptor, 3 h at 25° C.
# Procedure, shortened: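 Compounds in 5% DMSO, either dose-response or screened at 1 and 10 uM, competed with 6 nM 25-[3H]hydroxycholesterol for 0.6 ug/mL RORc over 3 h at 25° C (HEPES pH 7.4, NaCl, MgCl2, DTT, BSA buffer). Bound tracer was filter-harvested and counted; nonspecific binding came from 1 uM 25-hydroxycholesterol.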
row,pIC50,Compound
1,7.13,"CC1(C)[C@@H]2CC[C@@]1(CNCC(F)F)c1nnc(-c3c(F)cccc3F)cc12 [Example 328, N-(((5S,8R)-3-(2,6-difluorophenyl)-9,9-dimethyl-5,6,7,8-tetrahydro-5,8-methanocinnolin-8-yl)methyl)-2,2-difluoroethanamine]"
2,7.92,"CCN(C[C@@]12CC[C@@H](c3cc(-c4c(F)cccc4F)nnc31)C2(C)C)c1cncc(=O)[nH]1 [Example 323, 6-((((5R,8S)-3-(2,6-difluorophenyl)-9,9-dimethyl-5,6,7,8-tetrahydro-5,8-methanocinnolin-8-yl)methyl)(ethyl)amino) pyrazin-2(1H)-one]"
3,6.46,"C[C@H]1CN(C[C@@]23CC[C@@H](c4cc(-c5c(F)cccc5F)nnc42)C3(C)C)C(=O)O1 [Example 315, (S)-3-(((5R,8S)-3-(2,6-difluorophenyl)-9,9-dimethyl-5,6,7,8-tetrahydro-5,8-methanocinnolin-8-yl)methyl)-5-methyloxazolidin-2-one]"
4,6.14,"CN(C)C(=O)C1CCN(C(=O)[C@]23CC[C@H](c4cc(-c5c(F)cccc5F)nnc42)C3(C)C)C1 (stereo partly drawn) [Example 211, 1-((5S,8S)-3-(2,6-difluorophenyl)-9,9-dimethyl-5,6,7,8-tetrahydro-5,8-methanocinnoline-8-carbonyl)-N,N-dimethylpyrrolidine-3-carboxamide]"
5,5.94,"CC1(C)[C@@H]2CC[C@@]1(C(=O)N1C3CCC1CC(O)C3)c1nnc(-c3c(F)cccc3F)cc12 (stereo partly drawn) [Example 261, ((5S,8S)-3-(2,6-difluorophenyl)-9,9-dimethyl-5,6,7,8-tetrahydro-5,8-methanocinnolin-8-yl)(3-hydroxy-8-azabicyclo[3.2.1]octan-8-yl)methanone]"
6,6.27,"CC1(C)[C@H]2CC[C@]1(C(=O)N1CCC1)c1nnc(Oc3c(F)cccc3F)cc12 [Example 337, azetidin-1-yl((5R,8R)-3-(2,6-difluorophenoxy)-9,9-dimethyl-5,6,7,8-tetrahydro-5,8-methanocinnolin-8-yl)methanone]"
7,6.33,"Cn1nc([C@]23CC[C@H](c4cc(-c5c(F)cccc5F)nnc42)C3(C)C)oc1=O [Example 263, 5-((5S,8S)-3-(2,6-difluorophenyl)-9,9-dimethyl-5,6,7,8-tetrahydro-5,8-methanocinnolin-8-yl)-3-methyl-1,3,4-oxadiazol-2(3H)-one]"
8,6.02,"CC1(C)[C@@H]2CC[C@@]1(N1CCCC1=O)c1nnc(-c3c(F)cccc3F)cc12 [Example 253, 1-((5S,8S)-3-(2,6-difluorophenyl)-9,9-dimethyl-5,6,7,8-tetrahydro-5,8-methanocinnolin-8-yl)pyrrolidin-2-one]"
9,6.83,"CC1(C)[C@H]2CC[C@]1(CNCC(F)F)c1nnc(-c3c(F)cccc3F)cc12 [Example 291, N-(((5R,8S)-3-(2,6-difluorophenyl)-9,9-dimethyl-5,6,7,8-tetrahydro-5,8-methanocinnolin-8-yl)methyl)-2,2-difluoroethanamine]"
10,5.86,"Cc1nnc(OC(=O)[C@]23CC[C@H](c4cc(-c5c(F)cccc5F)nnc42)C3(C)C)o1 [Example 270, (5S,8S)-5-methyl-1,3,4-oxadiazol-2-yl 3-(2,6-difluorophenyl)-9,9-dimethyl-5,6,7,8-tetrahydro-5,8-methanocinnoline-8-carboxylate]"
11,7.10,"CC(=O)NC(C)(C)[C@@]12CC[C@@H](c3cc(-c4c(F)cccc4F)nnc31)C2(C)C [Example 321, N-(2-((5R,8S)-3-(2,6-difluorophenyl)-9,9-dimethyl-5,6,7,8-tetrahydro-5,8-methanocinnolin-8-yl)propan-2-yl)acetamide]"
12,6.04,"CN(CC(N)=O)[C@@]12CC[C@@H](c3cc(-c4c(F)cccc4F)nnc31)C2(C)C [Example 306, 2-(((5R,8R)-3-(2,6-difluorophenyl)-9,9-dimethyl-5,6,7,8-tetrahydro-5,8-methanocinnolin-8-yl)(methyl)amino) acetamide]"
13,6.63,"CC1(C)[C@@H]2CC[C@@]1(C(=O)N1CC(n3cccn3)C1)c1nnc(-c3c(F)cccc3F)cc12 [Example 232, (3-(1H-pyrazol-1-yl)azetidin-1-yl)((5S,8S)-3-(2,6-difluorophenyl)-9,9-dimethyl-5,6,7,8-tetrahydro-5,8-methanocinnolin-8-yl)methanone]"
14,6.09,"CC1(C)[C@H]2CC[C@]1(c1nnc(N)o1)c1nnc(-c3c(F)cccc3F)cc12 [Example 255, 5-((5R,8R)-3-(2,6-difluorophenyl)-9,9-dimethyl-5,6,7,8-tetrahydro-5,8-methanocinnolin-8-yl)-1,3,4-oxadiazol-2-amine]"
15,5.68,"CCNC(=O)N(C)[C@@]12CC[C@@H](c3cc(-c4c(F)cccc4F)nnc31)C2(C)C [Example 285, 1-((5R,8R)-3-(2,6-difluorophenyl)-9,9-dimethyl-5,6,7,8-tetrahydro-5,8-methanocinnolin-8-yl)-3-ethyl-1-methylurea]"
16,6.06,"CC1(C)[C@@H]2CC[C@@]1(N1CCOC1=O)c1nnc(-c3c(F)cccc3F)cc12 [Example 254, 3-((5S,8S)-3-(2,6-difluorophenyl)-9,9-dimethyl-5,6,7,8-tetrahydro-5,8-methanocinnolin-8-yl)oxazolidin-2-one]"
17,6.07,"CC(C)OC1CN(C(=O)[C@]23CC[C@H](c4cc(-c5c(F)cccc5F)nnc42)C3(C)C)C1 [Example 235, ((5S,8S)-3-(2,6-difluorophenyl)-9,9-dimethyl-5,6,7,8-tetrahydro-5,8-methanocinnolin-8-yl)(3-isopropoxyazetidin-1-yl)methanone]"
18,5.96,"CC1(O)CCN(C(=O)[C@]23CC[C@H](c4cc(-c5c(F)cccc5F)nnc42)C3(C)C)C1 (stereo partly drawn) [Example 219, ((5S,8S)-3-(2,6-difluorophenyl)-9,9-dimethyl-5,6,7,8-tetrahydro-5,8-methanocinnolin-8-yl)(3-hydroxy-3-methylpyrrolidin-1-yl)methanone]"

# Continued, compound first:
row,Compound,pIC50
1,"Cc1nnc(N(C)C[C@@]23CC[C@@H](c4cc(-c5c(F)cccc5F)nnc42)C3(C)C)o1 [Example 146, N-(((5R,8S)-3-(2,6-difluorophenyl)-9,9-dimethyl-5,6,7,8-tetrahydro-5,8-methanocinnolin-8-yl)methyl)-N,5-dimethyl-1,3,4-oxadiazol-2-amine]",7.96
2,"CC1(C)[C@H]2CC[C@]1(C(=O)N1CC(c3cc[nH]n3)C1)c1nnc(-c3ccccc3F)cc12 [Example 182, (3-(1H-pyrazol-3-yl)azetidin-1-yl)((5R,8R)-3-(2-fluorophenyl)-9,9-dimethyl-5,6,7,8-tetrahydro-5,8-methanocinnolin-8-yl)methanone]",5.52
3,"CCN(C[C@@]12CC[C@@H](c3cc(-c4c(F)cccc4F)nnc31)C2(C)C)C(C)=O [Example 157, N-(((5R,8S)-3-(2,6-difluorophenyl)-9,9-dimethyl-5,6,7,8-tetrahydro-5,8-methanocinnolin-8-yl)methyl)-N-ethylacetamide]",7.72
4,Cn1ccc([C@@]23CC[C@@H](c4cc(-c5c(F)cccc5F)nnc42)C3(C)C)n1 [Example 186],6.82
5,"COC1CCN(C(=O)[C@@]23CC[C@@H](c4cc(-c5ccccc5F)nnc42)C3(C)C)CC1 [Example 173, ((5R,8R)-3-(2-fluorophenyl)-9,9-dimethyl-5,6,7,8-tetrahydro-5,8-methanocinnolin-8-yl)(4-methoxypiperidin-1-yl)methanone]",5.61
6,"CC1(O)CN(C(=O)[C@]23CC[C@H](c4cc(-c5c(F)cccc5F)nnc42)C3(C)C)C1 [Example 92, [(5S,8S)-3-(2,6-difluorophenyl)-9,9-dimethyl-6,7-dihydro-5,8-methanocinnolin-8(5H)-yl](3-hydroxy-3-methylazetidin-1-yl)methanone]",5.52
7,"CC1(C)[C@@H]2CC[C@@]1(Cn1cccn1)c1nnc(-c3ccccc3F)cc12 [Example 27, (5S,8R)-3-(2-fluorophenyl)-9,9-dimethyl-8-(1H-pyrazol-1-ylmethyl)-5,6,7,8-tetrahydro-5,8-methanocinnoline]",6.44
8,"CC1(C)[C@@H]2CC[C@@]1(C(=O)N1CC(F)(F)C1)c1nnc(-c3c(F)cccc3F)cc12 [Example 139, (3,3-difluoroazetidin-1-yl)((5S,8S)-3-(2,6-difluorophenyl)-9,9-dimethyl-5,6,7,8-tetrahydro-5,8-methanocinnolin-8-yl)methanone]",7.52
9,"CN(C)Cc1nc(C[C@@]23CC[C@@H](c4cc(-c5c(F)cccc5F)nnc42)C3(C)C)no1 [Example 66, 1-(3-{[(5R,8R)-3-(2,6-difluorophenyl)-9,9-dimethyl-6,7-dihydro-5,8-methanocinnolin-8(5H)-yl]methyl}-1,2,4-oxadiazol-5-yl)-N,N-dimethylmethanamine]",6.53
10,"CC1(C)[C@H]2C(=O)C[C@]1(C)c1nnc(-c3ccccc3F)cc12 [Example 127, (5R,8S)-3-(2-fluorophenyl)-8,9,9-trimethyl-7,8-dihydro-5,8-methanocinnolin-6(5H)-one]",5.77
11,CC1(C)[C@H]2CC[C@]1(c1cnccn1)c1nnc(-c3c(F)cccc3F)cc12 [Example 161],7.05
12,"CN(C(=O)[C@]12CC[C@H](c3cc(-c4c(F)cccc4F)nnc31)C2(C)C)C1CCC1 [Example 70, (5S,8S)-N-cyclobutyl-3-(2,6-difluorophenyl)-N,9,9-trimethyl-6,7-dihydro-5,8-methanocinnoline-8(5H)-carboxamide]",6.67
13,"CC1(C)[C@H]2CC[C@]1(C(=O)NC1CCCC1)c1nnc(-c3ccccc3F)cc12 [Example 175, (5R,8R)-N-cyclopentyl-3-(2-fluorophenyl)-9,9-dimethyl-5,6,7,8-tetrahydro-5,8-methanocinnoline-8-carboxamide]",5.94
